The results in this text go back to patent US20250129021A1, “SMALL MOLECULE PROTEIN SYNTHESIS MODULATORS” (Interdict Bio, Inc., priority 2023, published 2025).

What all share (assay type): biochemical
One assay relates to NFKB1. Description: In vitro transcription-translation (IVTT) assay, NFKB1 reporter. Particulars: HeLa S3 lysate, sfGFP/mCherry ratio. The method, then:
In vitro transcription-translation assay setup: Each assay includes a master mix containing lysate and shared components, a 96-well plate containing compound titrations for testing, a 96-well DNA plate with reporter constructs to be tested, 96-well skirted PCR plates, and 96-well flat-bottom, black, fluorescent assay plates. Reaction materials setup: (A) Master mix—15 mL conical tube (3 mL of HeLa S3 Lysate described above; 0.6 mL of ThermoFisher Accessory Proteins (#88882); 1.2 ml of ThermoFisher Reaction Mix (#88882); 0.54 mL of nuclease-free Water); (B) 96-Well Master Mix+Compound Plate (Half-log dilutions (30 μM−0.1 μM) of 4 compounds of interest are prepared in 100% DMSO); 96-Well DNA Plate (Five DNA constructs are plated into single columns within the plate. Row 1 of the column contains nuclease free H2O, all other wells contain 110 ng/μL plasmid DNA). Reactions are started by mixing 155 μL of master mix and 3.5 μL of compound serial dilutions, then 9.1 μL of master mix+compound mixture is aliquoted across 5 96-well plates. Reactions begin with final addition of 2 μL of DNA for a 11.1 μL reaction volume in each well. The entire plate is sealed, and incubated for 2 hrs at 30° C. After 2 hrs, quench the assay using 45 μL of PBS, and transfer 50 μL to a flat-bottom black microplate Quantify the sfGFP and mCherry signals from each well on each plate, taking 3 reads of each plate, and perform data analysis below.
In vitro transcription-translation assay data analysis: Each plate is read three times in channels for both sfGFP and mCherry signals. The average signal across these 3 reads is then calculated for further analysis. Control wells containing no DNA reporter are subtracted from reporter wells in the same column to remove auto-fluorescence of the lysate. Then, the ratio of sfGFP/mCherry is calculated per well, and these ratios are averaged across the triplicate experiments on the same plate. Finally, the ratio of each titration concentration is normalized to the no drug control to create the normalized stalling metric. The error on this measurement is determined by propagating error through the averaging and normalization steps. Values are plotted and fit for IC50 determination for each test sequence and titration of compound.

A further assay deals with CCND1. Description: In vitro transcription-translation (IVTT) assay, CCND1 reporter. Particulars: IVTT assay, HeLa S3 lysate, sfGFP/mCherry ratio. Put shortly: (§1)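 Reporter: mCherry, P2A, then 3×FLAG-target peptide-sfGFP fusion, IRES-initiated; HeLa S3 lysate IVTT; cpd dilutions 30 μM−0.1 μM half-log in 100% DMSO (dilution-plate conc); DNA added last; 2 h, 30° C; PBS quench.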

Another assay has as its system MYC. Briefly: In vitro transcription-translation (IVTT) assay, MYC reporter. The note with it: IVTT assay, HeLa S3 lysate, MYC reporter, normalized sfGFP/mCherry ratio; half-log dilutions 30 μM-0.1 μM, 2 hrs at 30° C. Put shortly: as §1

Each structure is given as a SMILES string. Bounds are passed on as bounds.

Regarding `O=C(NCc1cccc(F)c1)O[C@@H]1[C@@H](O)CN[C@@H]1Cc1ccc(Oc2cccnc2)cc1` [V192398, (2R,3S,4S)-4-hydroxy-2-{[4-(pyridin-3-yloxy)phenyl]methyl}pyrrolidin-3-yl N-[(3-fluorophenyl)methyl]carbamate], the 50% inhibitory concentration (IC50) in the assay on NFKB1, with CCND1 and with MYC was under 10 µM each time.
On to `O=C(NCc1cccc(F)c1)O[C@@H]1[C@@H](O)CN[C@@H]1Cc1ccc(-c2cnc(N3CC(F)(F)C3)s2)cc1` [V192410, (2R,3S,4S)-2-({4-[2-(3,3-difluoroazetidin-1-yl)-1,3-thiazol-5-yl]phenyl}methyl)-4-hydroxypyrrolidin-3-yl N-[(3-fluorophenyl)methyl]carbamate], for which the IC50 with NFKB1, in the assay on CCND1 and in the assay with MYC was under 10 µM throughout.
As to `O=C(NCc1cccc(F)c1)O[C@@H]1[C@@H](O)CN[C@@H]1Cc1ccc(-c2nncs2)cc1` [V192411, (2R,3S,4S)-4-hydroxy-2-{[4-(1,3,4-thiadiazol-2-yl)phenyl]methyl}pyrrolidin-3-yl N-[(3-fluorophenyl)methyl]carbamate], the IC50 in the assay on NFKB1, in the assay with CCND1 and in the assay with MYC was under 10 µM throughout.
In the case of `O=C(NCCc1cc(F)c(O)c(F)c1)O[C@@H]1[C@@H](O)CN[C@@H]1Cc1ccc(-c2cnco2)cc1` [V192432, (2R,3S,4S)-4-hydroxy-2-{[4-(1,3-oxazol-5-yl)phenyl]methyl}pyrrolidin-3-yl N-[2-(3,5-difluoro-4-hydroxyphenyl)ethyl]carbamate], the IC50 with NFKB1, in the assay with CCND1 and in the assay on MYC was under 10 µM in each case.
Take `O=C(NCc1cc(F)c(O)c(F)c1)O[C@@H]1[C@@H](O)CN[C@@H]1Cc1ccc(-c2cnco2)cc1` [V192433, (2R,3S,4S)-4-hydroxy-2-{[4-(1,3-oxazol-5-yl)phenyl]methyl}pyrrolidin-3-yl N-[(3,5-difluoro-4-hydroxyphenyl)methyl]carbamate]: the concentration for half-maximal inhibition (IC50) in the assay with NFKB1, in the assay on CCND1 and in the assay on MYC was under 10 µM in each case.
Take `O=C(NCCSC(F)(F)F)O[C@@H]1[C@@H](O)CN[C@@H]1Cc1ccc(-c2cnco2)cc1` [V192442, (2R,3S,4S)-4-hydroxy-2-{[4-(1,3-oxazol-5-yl)phenyl]methyl}pyrrolidin-3-yl N-{2-[(trifluoromethyl)sulfanyl]ethyl}carbamate]: the IC50 in the assay with NFKB1, with CCND1 and with MYC was under 10 µM throughout.
On to `O=C(NCCC12CC(CN1)C2)O[C@@H]1[C@@H](O)CN[C@@H]1Cc1ccc(-c2cnco2)cc1` [V192847, (2R,3S,4S)-4-hydroxy-2-{[4-(1,3-oxazol-5-yl)phenyl]methyl}pyrrolidin-3-yl N-(2-{2-azabicyclo[2.1.1]hexan-1-yl}ethyl)carbamate], for which the IC50 with NFKB1, with CCND1 and in the assay on MYC was under 10 µM in each case.
Take `O=C(NCCC12CNC(C1)C2)O[C@@H]1[C@@H](O)CN[C@@H]1Cc1ccc(-c2cnco2)cc1` [V192849, (2R,3S,4S)-4-hydroxy-2-{[4-(1,3-oxazol-5-yl)phenyl]methyl}pyrrolidin-3-yl N-(2-{2-azabicyclo[2.1.1]hexan-4-yl}ethyl)carbamate]: the IC50 in the assay with NFKB1, in the assay on CCND1 and with MYC was under 10 µM in each case.
With `C[C@H]1CC[C@@H](CCNC(=O)O[C@@H]2[C@@H](O)CN[C@@H]2Cc2ccc(-c3cnco3)cc2)N1` [V192850, (2R,3S,4S)-4-hydroxy-2-{[4-(1,3-oxazol-5-yl)phenyl]methyl}pyrrolidin-3-yl N-{2-[(2S,5S)-5-methylpyrrolidin-2-yl]ethyl}carbamate], the IC50 with NFKB1, in the assay on CCND1 and with MYC was under 10 µM throughout.
As for `O=C(NCc1cccc(F)c1)O[C@@H]1[C@@H](O)CN[C@@H]1Cc1ccc(-c2cnco2)nc1` [V192862, (2R,3S,4S)-4-hydroxy-2-{[6-(1,3-oxazol-5-yl)pyridin-3-yl]methyl}pyrrolidin-3-yl N-[(3-fluorophenyl)methyl]carbamate], the 50% inhibitory concentration (IC50) in the assay with NFKB1, in the assay on CCND1 and in the assay with MYC was under 10 µM throughout.
Consider `O=C(NCCC(O)C(F)(F)F)O[C@@H]1[C@@H](O)CN[C@@H]1Cc1ccc(-c2cnco2)cc1` (stereo partly drawn) [V192868, (2R,3S,4S)-4-hydroxy-2-{[4-(1,3-oxazol-5-yl)phenyl]methyl}pyrrolidin-3-yl N-(4,4,4-trifluoro-3-hydroxybutyl)carbamate], for which the IC50 in the assay with NFKB1, with CCND1 and with MYC was under 10 µM in each case.
As for `O=C(NCc1cccc(F)c1)O[C@@H]1[C@@H](O)CN[C@@H]1Cc1ccc(-c2cn3cc(C(F)(F)F)nc3s2)cc1` [V192874, (2R,3S,4S)-4-hydroxy-2-({4-[6-(trifluoromethyl)imidazo[2,1-b][1,3]thiazol-2-yl]phenyl}methyl)pyrrolidin-3-yl N-[(3-fluorophenyl)methyl]carbamate], the IC50 in the assay on NFKB1, in the assay with CCND1 and in the assay with MYC was under 10 µM each time.
`O=C(NCC[C@@H]1CCCN1)O[C@@H]1[C@@H](O)CN[C@@H]1Cc1ccc(C(F)F)cc1` [V192893, (2R,3S,4S)-2-(4-(difluoromethyl)benzyl)-4-hydroxypyrrolidin-3-yl (2-((S)-pyrrolidin-2-yl)ethyl)carbamate]: the IC50 in the assay with NFKB1, in the assay on CCND1 and in the assay with MYC was under 10 µM in each case.
As for `O=C(NCC[C@H]1CCNCC1(F)F)O[C@@H]1[C@@H](O)CN[C@@H]1Cc1ccc(-c2cnco2)cc1` [V192894, (2R,3S,4S)-4-hydroxy-2-{[4-(1,3-oxazol-5-yl)phenyl]methyl}pyrrolidin-3-yl N-{2-[(4R)-3,3-difluoropiperidin-4-yl]ethyl}carbamate], the IC50 in the assay on NFKB1, in the assay with CCND1 and in the assay with MYC was under 10 µM in each case.
Consider `O=C(NCc1cccc(F)c1)O[C@@H]1[C@@H](O)CN[C@@H]1Cc1ccc(C(F)(F)F)cc1` [V192896, (2R,3S,4S)-4-hydroxy-2-{[4-(trifluoromethyl)phenyl]methyl}pyrrolidin-3-yl N-[(3-fluorophenyl)methyl]carbamate], for which the IC50 in the assay on NFKB1, with CCND1 and in the assay on MYC was under 10 µM throughout.
With `O=C(NCC[C@H]1CCNC[C@H]1F)O[C@@H]1[C@@H](O)CN[C@@H]1Cc1ccc(-c2cnco2)cc1` [V192897, (2R,3S,4S)-4-hydroxy-2-{[4-(1,3-oxazol-5-yl)phenyl]methyl}pyrrolidin-3-yl N-{2-[(3S,4R)-3-fluoropiperidin-4-yl]ethyl}carbamate], the IC50 in the assay on NFKB1 is under 10 µM; with CCND1 it was 10 to 20 µM; in the assay on MYC it was under 10 µM.
With `O=C(NCC[C@@H]1CCCN1)O[C@@H]1[C@@H](O)CN[C@@H]1Cc1ccc(-c2cnco2)c(F)c1` [V192903, (2R,3S,4S)-2-{[3-fluoro-4-(1,3-oxazol-5-yl)phenyl]methyl}-4-hydroxypyrrolidin-3-yl N-{2-[(2S)-pyrrolidin-2-yl]ethyl}carbamate], the IC50 in the assay on NFKB1 is under 10 µM; with CCND1, 10 to 20 µM; in the assay on MYC, under 10 µM.
For `O=C(NCC[C@@H]1C[C@H](C(F)(F)F)CN1)O[C@@H]1[C@@H](O)CN[C@@H]1Cc1ccc(-c2cnco2)cc1` [V192912, (2R,3S,4S)-4-hydroxy-2-{[4-(1,3-oxazol-5-yl)phenyl]methyl}pyrrolidin-3-yl N-{2-[(2S,4S)-4-(trifluoromethyl)pyrrolidin-2-yl]ethyl}carbamate], the IC50 in the assay on NFKB1, in the assay with CCND1 and in the assay with MYC was under 10 µM throughout.
Take `O=C(NCC[C@@H]1CC(F)CN1)O[C@@H]1[C@@H](O)CN[C@@H]1Cc1ccc(-c2cnco2)cc1` (stereo partly drawn) [V192916, (2R,3S,4S)-4-hydroxy-2-{[4-(1,3-oxazol-5-yl)phenyl]methyl}pyrrolidin-3-yl N-{2-[(2R)-4-fluoropyrrolidin-2-yl]ethyl}carbamate]: the IC50 with NFKB1, in the assay on CCND1 and in the assay with MYC was under 10 µM in each case.
As for `O=C(NCC[C@@H]1C[C@H](F)CN1)O[C@@H]1[C@@H](O)CN[C@@H]1Cc1ccc(-c2cnco2)cc1` [V192917, (2R,3S,4S)-4-hydroxy-2-{[4-(1,3-oxazol-5-yl)phenyl]methyl}pyrrolidin-3-yl N-{2-[(2R,4S)-4-fluoropyrrolidin-2-yl]ethyl}carbamate], the IC50 in the assay on NFKB1, in the assay on CCND1 and with MYC was under 10 µM throughout.

What is called IC50 is the midpoint of a concentration-inhibition curve.
